Experimental data published in patent publication US8999654B2, “Method of identifying a compound for the treatment or prevention of obesity” (Omeros Corporation, priority 2003, dated 2015).

Key:
[1] = system: CHO cells stably transfected with a GPCR expression vector; test: Intracellular calcium measurement using FLIPR; assay type: cell-based; details: positive controls; FLIPR fluorescence, signal measured for approximately 200 seconds
Method: Changes in intracellular calcium levels are another recognized indicator of G protein-coupled receptor activity, and such assays can be employed to screen for modulators of GPCR activity. For example, CHO cells stably transfected with a GPCR expression vector are plated at a density of 40,000 cells/well in 96-well plates specially designed to discriminate fluorescence signals emanating from the various wells on the plate. The cells are incubated for 60 minutes at 37° C. in modified Dulbecco's PBS containing pyruvate and 1 g/L glucose with the addition of 1% fetal bovine serum and one of four calcium indicator dyes (Fluo-3™ AM, Fluo-4™ AM, Calcium Green™-1 AM, or Oregon Green™ BAPTA-1 AM). Plates are washed once with modified Dulbecco's PBS without 1% fetal bovine serum and incubated for 10 minutes at 37° C. to remove residual dye from the cellular membrane. […] Fluorescence is measured by Molecular Device's FLIPR with an argon laser (excitation […]) (Kuntzweiler et al., Drug Development Research, 44(1):14-20 (1998)).
Basal fluorescence of cells was measured for 20 seconds prior to addition of candidate agonist, ATP, or A23187, and the basal fluorescence level was subtracted from the response signal. The calcium signal is measured for approximately 200 seconds, taking readings every two seconds. […]

[2] = system: WT and GPR88 KO mice; test: Amphetamine-induced reduction of prepulse inhibition (PPI) of the acoustic startle response; details: amphetamine 2.5 mg/kg i.p., tested 30 minutes later, both WT and GPR88 KO mice (129sv)
[3] = system: WT and GPR88 KO mice; test: Amphetamine-induced hyperactivity (locomotor activity in activity chambers); assay type: in vivo, mouse; details: amphetamine 2.5 mg/kg i.p., 30 minutes after injection, monitored 20 min, both WT and GPR88 KO mice, p<0.001
Method: Open field activity was monitored in VersaMax chambers (Accuscan Instruments, Columbus, Ohio) measuring 40×40 cm. Locomotor activity was detected by photobeams breaks as the animal crossed each beam. The animal was placed in the center of the field and then left undisturbed for a period of time (20 min to 2 hr) in order to measure its spontaneous activity in a novel environment. Measurements used to assess locomotor activity included: horizontal activity, total distance traveled, vertical activity (rearing events—animal raises up on hindlimbs), rotation, stereotypy, and distance traveled in the center compared to total distance traveled (center: total distance ratio).
Amphetamine-induced hyperactivity of GPR88 knockout mice was measured by injecting the animals with amphetamine and monitoring the animals' activity levels.

[4] = system: GPR88 KO and WT mice; test: Amphetamine-induced hyperactivity, open field activity test; assay type: in vivo, mouse; details: amphetamine 2.5 mg/kg i.p., 30 min before test, monitored 20 min; both WT and GPR88 KO mice, p<0.001
Excerpt: However, the activity level of KO mice (n=18) was much higher than that of the WT mice (n=18) (p<0.001 for the first 4-min block, p<0.05 for the second 4-min block, p<0.05 during the whole 20-min period). There was a strong genotype×treatment interaction for the first 4-min block (F(3,68)=10.5, p<0.01, two-way ANOVA).
Another test assays open field activity. Locomotor activity is detected by photobeam breaks as the animal crosses each beam. Measurements used to assess locomotor activity include, for example, total distance traveled, total number of rearing events (animal raises up on hindlimbs), and distance traveled in the center compared to total distance traveled (center: total distance ratio). Typically, mice are placed in the center of the field. Mice will normally explore the edges/walls first and then, over time, spend more time in the center as they become familiar with the environment. Open field activity determination provides data on the general activity level of mice (i.e. hypo- or hyper-active), as well as an indication of the animal's anxiety-related behaviors in an open-space.

[5] = system: GPR88 KO and WT mice; test: Amphetamine-induced reduction of prepulse inhibition (PPI) of acoustic startle; details: amphetamine 2.5 mg/kg i.p., tested 30 min later
[6] = system: WT and GPR85 KO mice; details: 2.5 g/kg i.p. ethanol, rectal temperature 30 minutes post injection, both WT and GPR85 KO mice
Method: Initial sensitivity to alcohol is measured in mice after a single (acute) dose. […] Core body temperature was measured rectally (T0) (Physitemp) and then the mice were administered an i.p. dose of 2.5 mg/kg and placed in a Plexiglas dosing chamber. that is the same size as the animal's cage. Core body temperature was measured rectally 30 minutes post injection (T1) and returned to their home cage. Mice were housed in the testing room overnight.

CNc1ccc2oc(C[C@H]3O[C@@]4(CC[C@H]3C)O[C@H]([C@H](C)C(=O)c3ccc[nH]3)[C@H](C)C[C@H]4C)nc2c1C(=O)O [A23187]
increase of calcium signal above baseline levels [1]: 200%

Nc1ncnc2c1ncn2[C@@H]1O[C@H](COP(=O)(O)OP(=O)(O)OP(=O)(O)O)[C@@H](O)[C@H]1O [ATP]
increase of calcium signal above baseline levels [1]: 200%

CC(N)Cc1ccccc1 (centres unmarked) [amphetamine]
startle response to the 120 dB stimulus [2]: significantly decreased | locomotor activity compared to baseline in the absence of drugs [3]: significantly higher activity | locomotor activity after amphetamine compared to baseline locomotor activity in the absence of drugs [4]: significantly higher activity | startle responses to the 120 dB stimulus after amphetamine treatment ([5]; both WT and GPR88 KO mice (129sv)): significantly decreased | PPI after amphetamine treatment ([5]; both WT and GPR88 KO mice, p<0.001): significant reduction of PPI

CCO [ethanol]
effect on core body temperature (hypothermic effect) [6]: reduced body temperature in both WT and KO mice
